Assay results reported in patent US5066794A, “Process for preparing a disaccharide derivative” (Daiichi Pharmaceutical Co., Ltd., priority 1990, dated 1991).

Assays:
[1] = tested on: Japanese white rabbits; assay: Test I: local Shwartzman reaction induction activity; assay type: in vivo; settings: 100 μg S. minnesota LPS i.v. 20 hours later
Experimental: The local Shwartzman reaction test (Test I) is examined to determine the phenomenon of necrosis, at the site where a test compound was injected, induced by intravenous injection of lipopolysaccharide (hereinafter referred to as LPS) after 20 hours from intracutaneous injection of the test compound to test animals, preferably in rabbits.
The test on Shwartzman reaction specific to endotoxin was carried out as follows using Japanese white rabbits (female, weighing around 3 kg). That is, Japanese domestic white rabbits were intracutaneously injected with the test compound. Twenty hours later, 100 μg of LPS extracted from Salmonella minnesota R595, Re-mutant was intravenously injected to each rabbit. The Shwartzman reaction-induction activity was expressed in terms of number of animals that suffered from hemorrhagic necrosis at the site that had been prepared by intracutaneous injection of the test compound.

[2] = tested on: Japanese domestic white rabbits; assay: Test II: pyrogenicity test (body temperature increase in rabbits); settings: 0.1 μg/kg intravenous; febrile = temperature increase of 0.6° C. or more
Experimental: The pyrogenicity of the compounds of this invention was determined in terms of body temperature increase in rabbits after intravenous injection of the test compound in accordance with the test method of pyrogenicity defined in Japanese Pharmacopoeia. That is, the rectal temperatures of Japanese domestic white rabbits (body weight: 2 to 2.5 kg) were measured 3 times at one-hour intervals. When the temperature in the second and third measurements were substantially equal, the third temperature was taken as a reference temperature. Within 15 minutes after the third measurement, the test compound dissolved in pyrogen-free distilled water was injected in the ear vein, and the rectal temperature was measured 3 times at one-hour intervals after injection. A difference between the reference temperature and the maximum temperature was taken as an increase of body temperature, and the pyrogenicity of the test compound was expressed by the number of febrile animals showing a temperature increase of 0.6° C. or more.

[3] = tested on: murine lymphocytes (splenocytes); assay: Mitogenicity: stimulation of [^3 H]-labeled thymidine uptake into isolated murine lymphocytes (splenocytes); assay type: cell-based, BALB/c nu/nu mice; settings: Mus musculus, Splenocyte, 48 hours, 37° C., read-out: Stimulation Index ± S.E. of mitogenicity ([^3 H]-labeled thymidine uptake; T/C)
Experimental: Spleen of BALB/c nu/nu mice (male; 8-week old) was minced, and lymphocytes collected from the minced spleen were incubated with graded doses of test compounds in RPMI 1640 medium without fetal bovine serum at 37° C. at a concentration of 1×10^5 to 1×10^6 lymphocytes per ml for 48 hours. Twenty-four hours before the completion of the incubation, [^3 H]-labeled thymidine (manufactured by New England Nuclear) was added to the culture. After the completion of the incubation, cells were collected on glass microfiber paper and dried, and the radioactivity of [^3 H]-labeled thymidine incorporated into the cells was measured. The ratio of thymidine uptake in the test culture to which the test compound had been added to that in the respective control culture was determined as a stimulation index. The higher the stimulation index, the higher the mitogenicity.

SMILES | Shwartzman reaction-induction activity: Number of Necrosed Animals/Number of Tested Animals ([1]; 80 μg/site intracutaneous) | Pyrogenicity: Number of Febrile Animals/Number of Tested Animals [2] | Shwartzman reaction-induction activity: Number of Necrosed Animals/Number of Tested Animals ([1]; 20 μg/site intracutaneous) | fold induction at 0.01 µg/mL ([3]; 0.01 μg/ml) | fold induction at 0.1 µg/mL ([3]; 0.1 μg/ml) | fold induction at 1 µg/mL ([3]; 1 μg/ml)
CCCCCCCCCCC[C@@H](O)CC(=O)N[C@H]1[C@H](OC[C@H]2O[C@H](OP(=O)(O)O)[C@H](NC(=O)C[C@H](O)CCCCCCCCCCC)[C@@H](OC(=O)C[C@H](O)CCCCCCCCCCC)[C@@H]2O)O[C@H](CO)[C@@H](OP(=O)(O)O)[C@@H]1OC(=O)C[C@H](O)CCCCCCCCCCC [Control Compound 1, 6-O-{2-Deoxy-2-[(R)-3-hydroxytetradecanoylamino]-3-O-[(R)-3-hydroxytetradecanoyl]-4-O-phosphono-β -D-glucopyranosyl}-2-deoxy-2-[(R)-3-hydroxytetradecanoylamino]-3-O-[(R)-3-hydroxytetradecanoyl]-1-O-phosphono-α-D-glucopyranose, reference compound] | 0/3 | 0/3 |  |  |  | 
CCCCCCCCCCCCCC(=O)O[C@H](CCCCCCCCCCC)CC(=O)O[C@@H]1[C@@H](NC(=O)C[C@@H](CCCCCCCCCCC)OC(=O)CCCCCCCCCCC)[C@H](OC[C@H]2O[C@H](OP(=O)(O)O)[C@H](NC(=O)C[C@H](O)CCCCCCCCCCC)[C@@H](OC(=O)C[C@H](O)CCCCCCCCCCC)[C@@H]2O)O[C@H](CO)[C@H]1OP(=O)(O)O [Compound of Present Invention, 6-O-{2-Deoxy-2-[(R)-3-dodecanoyloxytetradecanoylamino]-3-O-[(R)-3-tetradecanoyloxytetradecanoyl]-4-O-phosphono-β-D-glucopyranosyl}-2-deoxy-2-[(R)-3-hydroxytetradecanoylamino]-3-O-[(R)-3-hydroxytetradecanoyl]-1-O-phosphono-α-D-glucopyranose] |  | 3/4 | 2/3 | 4.06 ± 0.35 | 9.05 ± 0.7 | 11.8 ± 0.13
